# Measurements: ChEMBL document CHEMBL1201862, “PubChem BioAssay data set” (2004)
#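 Exposure lasted 48 hours, with cells grown in 96-well plates and compounds tested at five concentrations. GI50: concentration for 50% inhibition of growth.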 Activity calls are given as the source filed them. Rule as the data show it: active = GI50 up to about 1.1 µM and inactive = higher.
# What was measured:
# Assay in all cases: DTP human tumour cell line panel, 48 h
# HCC 2998 = tested on: HCC 2998
# HCT-116 = tested on: HCT-116
# K562 = tested on: K562
# IGROV-1 = tested on: IGROV-1
# NCI-H226 = tested on: NCI-H226
# RPMI-8226 = tested on: RPMI-8226
# HCT-15 = tested on: HCT-15
# SNB-75 = tested on: SNB-75
# NCI-H23 = tested on: NCI-H23
# SN12C = tested on: SN12C
# MDA-MB-435 = tested on: MDA-MB-435
# NCI-H522 = tested on: NCI-H522
# NCI-H460 = tested on: NCI-H460
# Hs-578T = tested on: Hs-578T
# RXF 393 = tested on: RXF 393
# UACC-257 = tested on: UACC-257
# SK-MEL-5 = tested on: SK-MEL-5
# OVCAR-8 = tested on: OVCAR-8
# T47D = tested on: T47D
Structure (SMILES),GI50 (HCC 2998),GI50 (HCT-116),GI50 (K562),GI50 (IGROV-1),GI50 (NCI-H226),GI50 (RPMI-8226),GI50 (HCT-15),GI50 (SNB-75),GI50 (NCI-H23),GI50 (SN12C),GI50 (MDA-MB-435),GI50 (NCI-H522),GI50 (NCI-H460),GI50 (Hs-578T),GI50 (RXF 393),GI50 (UACC-257),GI50 (SK-MEL-5),GI50 (OVCAR-8),GI50 (T47D)
C/C(=N\O)c1cccc[n+]1Cc1ccccc1,> 100 µM (inactive),> 100 µM (inactive),> 100 µM (inactive),> 100 µM (inactive),> 100 µM (inactive),> 100 µM (inactive),> 100 µM,> 100 µM (inactive),> 100 µM (inactive),> 100 µM (inactive),> 100 µM (inactive),> 100 µM (inactive),> 100 µM (inactive),> 100 µM (inactive),> 100 µM (inactive),> 100 µM (inactive),> 100 µM (inactive),> 100 µM (inactive),> 100 µM (inactive)
CC1(C)[C@H]2Cc3cc(-c4cc5c(cn4)[C@@H]4C[C@H]([C@@H]5[C@@H]5c6cc(-c7cc8c(cn7)[C@@H]7C[C@H](C8)C7(C)C)ncc6[C@@H]6C[C@H]5C6(C)C)C4(C)C)ncc3[C@@H]1C2,76.7 µM (inactive),> 100 µM (inactive),> 100 µM (inactive),> 100 µM (inactive),> 100 µM (inactive),> 100 µM (inactive),> 100 µM,> 100 µM (inactive),> 100 µM (inactive),> 100 µM (inactive),> 100 µM (inactive),> 100 µM (inactive),> 100 µM (inactive),> 100 µM (inactive),> 100 µM (inactive),> 100 µM (inactive),> 100 µM (inactive),> 100 µM (inactive),> 100 µM (inactive)
C=C1CCCCCCCCCCC12SCCC2CCCCSC (stereo not given),21.4 µM (inactive),17.8 µM (inactive),22.9 µM (inactive),22.5 µM (inactive),20.4 µM (inactive),24.4 µM (inactive),26 µM,–,25.7 µM (inactive),24.3 µM (inactive),26.1 µM (inactive),17.2 µM (inactive),34.5 µM (inactive),39.4 µM (inactive),29.2 µM (inactive),26.1 µM (inactive),17.3 µM (inactive),28.8 µM (inactive),17.9 µM (inactive)
CC(C)[Si]1(C(C)C)OCC2OC(n3ccc(=O)[nH]c3=O)C([Se]c3ccccc3)C2O[Si](C(C)C)(C(C)C)O1 (stereo not given),1.58 µM (inactive),2.62 µM (inactive),–,2.44 µM (inactive),1.55 µM (inactive),2.95 µM (inactive),4.39 µM,0.33 µM (active),3.57 µM (inactive),2.29 µM (inactive),5.42 µM (inactive),2.1 µM (inactive),1.87 µM (inactive),0.762 µM (active),4.55 µM (inactive),4.31 µM (inactive),3.01 µM (inactive),3.4 µM (inactive),6.71 µM (inactive)
NC1=Nc2ncccc2C(=O)NN1,8.89 µM (inactive),> 10 µM (inactive),> 10 µM (inactive),> 10 µM (inactive),> 10 µM (inactive),> 10 µM (inactive),> 10 µM,> 10 µM (inactive),> 10 µM (inactive),> 10 µM (inactive),> 10 µM (inactive),–,> 10 µM (inactive),0.382 µM (active),> 10 µM (inactive),> 10 µM (inactive),> 10 µM (inactive),> 10 µM (inactive),> 10 µM (inactive)
CNc1ccc(C)cc1S(=O)(=O)c1ccccc1[N+](=O)[O-],92.5 µM (inactive),48.4 µM (inactive),26.7 µM (inactive),58.5 µM (inactive),75.5 µM (inactive),49.4 µM (inactive),41.3 µM,43.3 µM (inactive),63 µM (inactive),86.7 µM (inactive),25.5 µM (inactive),31.8 µM (inactive),51.1 µM (inactive),55.7 µM (inactive),> 100 µM (inactive),–,18.2 µM (inactive),78 µM (inactive),29 µM (inactive)
Cn1c(-c2ccccc2)cc(-c2ccsc2)c1-c1ccsc1,> 100 µM (inactive),55.5 µM (inactive),> 100 µM (inactive),> 100 µM (inactive),6.81 µM (inactive),> 100 µM (inactive),> 100 µM,> 100 µM (inactive),> 100 µM (inactive),> 100 µM (inactive),> 100 µM (inactive),–,> 100 µM (inactive),> 100 µM (inactive),33.3 µM (inactive),> 100 µM (inactive),> 100 µM (inactive),> 100 µM (inactive),> 100 µM (inactive)
Oc1ccc2ccccc2c1CN(Cc1c(O)ccc2ccccc12)C1CCCCC1,14.6 µM (inactive),15.8 µM (inactive),19.5 µM (inactive),11.8 µM (inactive),–,25.1 µM (inactive),20.6 µM,21.8 µM (inactive),17.1 µM (inactive),14.4 µM (inactive),19.2 µM (inactive),13.4 µM (inactive),20 µM (inactive),26.4 µM (inactive),18.2 µM (inactive),15.3 µM (inactive),14.9 µM (inactive),21.3 µM (inactive),31.9 µM (inactive)
Cc1nc2ccc(/N=N/N(C)C)cc2[nH]1,> 100 µM (inactive),> 100 µM (inactive),–,> 100 µM (inactive),> 100 µM (inactive),> 100 µM (inactive),> 100 µM,> 100 µM (inactive),–,> 100 µM (inactive),> 100 µM (inactive),> 100 µM (inactive),> 100 µM (inactive),> 100 µM (inactive),> 100 µM (inactive),> 100 µM (inactive),> 100 µM (inactive),> 100 µM (inactive),> 100 µM (inactive)
CN(C)CCCn1c(Cc2ccc(Cl)cc2)nc2cc(C(F)(F)F)ccc21,2 µM (inactive),12.5 µM (inactive),6.41 µM (inactive),13.1 µM (inactive),18.7 µM (inactive),40.8 µM (inactive),17.1 µM,–,15.8 µM (inactive),15.1 µM (inactive),12.9 µM (inactive),14.6 µM (inactive),13.2 µM (inactive),16.6 µM (inactive),9.06 µM (inactive),15.6 µM (inactive),15.8 µM (inactive),17.3 µM (inactive),12 µM (inactive)
O=C1c2cc(Br)ccc2-c2ccc3c4ccc5c6c(ccc(c7ccc1c2c73)c64)C(=O)c1cc(Br)ccc1-5,> 100 µM (inactive),> 100 µM (inactive),> 100 µM (inactive),> 100 µM (inactive),> 100 µM (inactive),> 100 µM (inactive),> 100 µM,–,> 100 µM (inactive),> 100 µM (inactive),> 100 µM (inactive),> 100 µM (inactive),> 100 µM (inactive),> 100 µM (inactive),> 100 µM (inactive),> 100 µM (inactive),> 100 µM (inactive),> 100 µM (inactive),> 100 µM (inactive)
O=C(NCCCCCCCCNC(=O)Nc1cccc2ccccc12)Nc1cccc2ccccc12,30.1 µM (inactive),9.55 µM (inactive),14.5 µM (inactive),50.6 µM (inactive),–,> 100 µM (inactive),> 100 µM,35.5 µM (inactive),30.4 µM (inactive),18.4 µM (inactive),17.3 µM (inactive),16.1 µM (inactive),3.5 µM (inactive),14.2 µM (inactive),22.6 µM (inactive),> 100 µM (inactive),42.3 µM (inactive),18.5 µM (inactive),24 µM (inactive)
N#Cc1nc(/C=C/c2cccnc2)oc1N,> 100 µM (inactive),> 100 µM (inactive),> 100 µM (inactive),> 100 µM (inactive),> 100 µM (inactive),> 100 µM (inactive),> 100 µM,> 100 µM (inactive),> 100 µM (inactive),> 100 µM (inactive),> 100 µM (inactive),> 100 µM (inactive),> 100 µM (inactive),> 100 µM (inactive),> 100 µM (inactive),> 100 µM (inactive),> 100 µM (inactive),–,> 100 µM (inactive)
O=C(Cn1nc(Br)c(Br)c1Br)c1ccccc1,36.6 µM (inactive),18.1 µM (inactive),10.8 µM (inactive),27.7 µM (inactive),11.8 µM (inactive),–,31.6 µM,23.2 µM (inactive),24.8 µM (inactive),65.6 µM (inactive),31 µM (inactive),26 µM (inactive),23.8 µM (inactive),44.1 µM (inactive),13.6 µM (inactive),20 µM (inactive),18.1 µM (inactive),34.5 µM (inactive),24.5 µM (inactive)
Cn1c(=O)c2c(nc3sc4ncccc4c(=O)n32)n(C)c1=O,> 100 µM (inactive),> 100 µM (inactive),–,> 100 µM (inactive),> 100 µM (inactive),> 100 µM (inactive),> 100 µM,> 100 µM (inactive),> 100 µM (inactive),> 100 µM (inactive),> 100 µM (inactive),–,> 100 µM (inactive),> 100 µM (inactive),> 100 µM (inactive),> 100 µM (inactive),> 100 µM (inactive),> 100 µM (inactive),> 100 µM (inactive)
O=[N+]([O-])/C(C(Cl)=C(Cl)Cl)=C(\Nc1cccc2ccccc12)n1nnc2ccccc21,> 100 µM (inactive),34.1 µM (inactive),–,–,71.3 µM (inactive),23.3 µM (inactive),58.2 µM,86.5 µM (inactive),37.6 µM (inactive),> 100 µM (inactive),53.7 µM (inactive),–,63.4 µM (inactive),9.31 µM (inactive),19.1 µM (inactive),> 100 µM (inactive),–,73.6 µM (inactive),> 100 µM (inactive)
